From ChEMBL document CHEMBL1147305, “Inhibition of protein-tyrosine kinase activity by flavanoids and related compounds” (J Nat Prod, 1989)
In brackets after ≈: the same amount, converted by molar mass. Activity calls are given as the source filed them. No cut-off for these calls is given here.

Species on record: Bos taurus
Experiment: Inhibition of bovine thymocytes protein tyrosine kinase assessed as angiotensin 1 phosphorylation

Row | SMILES | ID50 | Activity
1 | COc1ccc(-c2oc3cc(O)cc(O)c3c(=O)c2OC)cc1 | > 500 mg/L | 
2 | COc1ccc(-c2cc(=O)c3c(O)cc(OC)cc3o2)cc1 | > 500 mg/L | 
3 | COc1ccc(-c2oc3cc(OC)cc(O)c3c(=O)c2OC)cc1 | > 500 mg/L | 
4 | C[C@H]1O[C@@H](Oc2c(-c3cc(O)c(O)c(O)c3)oc3cc(O)cc(O)c3c2=O)[C@@H](O)[C@@H](O)[C@@H]1O | > 500 mg/L | 
5 | O=C1CC(c2ccccc2)Oc2cc(O)ccc21 (stereo not drawn) | > 500 mg/L | 
6 | O=c1c(O)c(-c2cc(O)c(O)c(O)c2)oc2cc(O)ccc12 | 7 mg/L (≈ 23.2 µM) | 
7 | COc1cc(/C=C/C(=O)O)ccc1O | 350 mg/L (≈ 1800 µM) | 
8 | O=c1c(-c2ccc(O)cc2)coc2cc(O)c(O)cc12 | > 500 mg/L | 
9 | COc1cc(C(=O)O)cc(OC)c1O | > 500 mg/L | 
10 | COc1ccc(-c2cc(=O)c3c(O)cc(O)cc3o2)cc1 | 300 mg/L (≈ 1060 µM) | 
11 | O=c1c(O)c(-c2cc(O)c(O)c(O)c2)oc2cc(O)cc(O)c12 | 11 mg/L (≈ 34.6 µM) | 
12 | O=c1c(-c2ccc(O)cc2)coc2cc(O)cc(O)c12 | > 500 mg/L | 
13 | O=C1C[C@@H](c2ccc(O)cc2)Oc2cc(O)cc(O)c21 | 80 mg/L (≈ 294 µM) | 
14 | O=C1c2ccc(O)cc2O[C@H](c2ccc(O)c(O)c2)[C@H]1O | > 500 mg/L | 
15 | O=C1C[C@@H](c2ccccc2)Oc2cc(O)cc(O)c21 | > 500 mg/L | 
16 | O=C1c2c(O)cc(O)cc2O[C@H](c2ccc(O)c(O)c2)[C@H]1O | 270 mg/L (≈ 887 µM) | 
17 | COc1ccc(-c2cc(=O)c3c(O)c(OC)c(O)c(OC)c3o2)cc1 | 48 mg/L (≈ 139 µM) | 
18 | O=c1cc(-c2ccccc2)oc2ccc3ccccc3c12 |  | inactive
19 | O=C(O)/C=C/c1ccc(O)cc1 | 450 mg/L (≈ 2740 µM) | 
20 | O=c1cc(-c2ccc(O)cc2)oc2cc(O)cc(O)c12 | 90 mg/L (≈ 333 µM) | 
21 | COc1ccc(-c2coc3cc(O)cc(O)c3c2=O)cc1 | > 500 mg/L | 
22 | O=c1c(O)c(-c2ccc(O)c(O)c2)oc2cc(O)ccc12 | 35 mg/L (≈ 122 µM) | 
23 | O=c1c(O)c(-c2ccc(O)c(O)c2)oc2cc(O)cc(O)c12 | 11 mg/L (≈ 36.4 µM) | 
